Our source for the IC50 values is US20250270209A1 (INTERLINE THERAPEUTICS, INC., priority 2022, published 2025).

The target in one assay is LRRK2 wild type enzyme (Homo sapiens, UniProt Q5S007). Description: Biochemical Assay: LRRK2 TR-FRET (LanthaScreen) kinase assay with LRRKtide substrate. As to conditions: LRRK2 Inhibition, Table 8. The method in brief:
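Human wild-type LRRK2 (3 nM) preincubated 15 min with compound (11-point, 3-fold, top 10 μM), then reacted 120 min at 23 °C with 400 nM LRRKtide and 25 μM ATP, pH 8.0. Stopped with EDTA; Tb-anti-pLRRKtide TR-FRET read after 30 min.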
(In general: TR-FRET usually uses a lanthanide donor and a delayed reading to cut background.)

Assay [1] addresses T1, wild type LRRK2 overexpressed in recombinant HEK-293T cells (Homo sapiens, UniProt Q5S007).
T1 construct: host or cells: HEK293T (transient transfection with pCMV-LRRK2 WT plasmid)
Description: pS935 LRRK2 Cell Assay (HTRF, phospho-LRRK2 Ser935). As to conditions: LRRK2 Inhibition, Table 8, 2 hours compound incubation. It counts as cell-based. In outline:
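HEK-293T cells transiently transfected with wild-type LRRK2 for 24 h, plated overnight, then treated 2 h at 37° C with compound (top 10 μM, 3-fold, 9 doses, duplicates, 0.2% DMSO). Lysates probed overnight at 23° C by sandwich HTRF for pSer935; 665/615 nm ratio read.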

Sequence of LRRK2 wild type enzyme (Q5S007 whole entry): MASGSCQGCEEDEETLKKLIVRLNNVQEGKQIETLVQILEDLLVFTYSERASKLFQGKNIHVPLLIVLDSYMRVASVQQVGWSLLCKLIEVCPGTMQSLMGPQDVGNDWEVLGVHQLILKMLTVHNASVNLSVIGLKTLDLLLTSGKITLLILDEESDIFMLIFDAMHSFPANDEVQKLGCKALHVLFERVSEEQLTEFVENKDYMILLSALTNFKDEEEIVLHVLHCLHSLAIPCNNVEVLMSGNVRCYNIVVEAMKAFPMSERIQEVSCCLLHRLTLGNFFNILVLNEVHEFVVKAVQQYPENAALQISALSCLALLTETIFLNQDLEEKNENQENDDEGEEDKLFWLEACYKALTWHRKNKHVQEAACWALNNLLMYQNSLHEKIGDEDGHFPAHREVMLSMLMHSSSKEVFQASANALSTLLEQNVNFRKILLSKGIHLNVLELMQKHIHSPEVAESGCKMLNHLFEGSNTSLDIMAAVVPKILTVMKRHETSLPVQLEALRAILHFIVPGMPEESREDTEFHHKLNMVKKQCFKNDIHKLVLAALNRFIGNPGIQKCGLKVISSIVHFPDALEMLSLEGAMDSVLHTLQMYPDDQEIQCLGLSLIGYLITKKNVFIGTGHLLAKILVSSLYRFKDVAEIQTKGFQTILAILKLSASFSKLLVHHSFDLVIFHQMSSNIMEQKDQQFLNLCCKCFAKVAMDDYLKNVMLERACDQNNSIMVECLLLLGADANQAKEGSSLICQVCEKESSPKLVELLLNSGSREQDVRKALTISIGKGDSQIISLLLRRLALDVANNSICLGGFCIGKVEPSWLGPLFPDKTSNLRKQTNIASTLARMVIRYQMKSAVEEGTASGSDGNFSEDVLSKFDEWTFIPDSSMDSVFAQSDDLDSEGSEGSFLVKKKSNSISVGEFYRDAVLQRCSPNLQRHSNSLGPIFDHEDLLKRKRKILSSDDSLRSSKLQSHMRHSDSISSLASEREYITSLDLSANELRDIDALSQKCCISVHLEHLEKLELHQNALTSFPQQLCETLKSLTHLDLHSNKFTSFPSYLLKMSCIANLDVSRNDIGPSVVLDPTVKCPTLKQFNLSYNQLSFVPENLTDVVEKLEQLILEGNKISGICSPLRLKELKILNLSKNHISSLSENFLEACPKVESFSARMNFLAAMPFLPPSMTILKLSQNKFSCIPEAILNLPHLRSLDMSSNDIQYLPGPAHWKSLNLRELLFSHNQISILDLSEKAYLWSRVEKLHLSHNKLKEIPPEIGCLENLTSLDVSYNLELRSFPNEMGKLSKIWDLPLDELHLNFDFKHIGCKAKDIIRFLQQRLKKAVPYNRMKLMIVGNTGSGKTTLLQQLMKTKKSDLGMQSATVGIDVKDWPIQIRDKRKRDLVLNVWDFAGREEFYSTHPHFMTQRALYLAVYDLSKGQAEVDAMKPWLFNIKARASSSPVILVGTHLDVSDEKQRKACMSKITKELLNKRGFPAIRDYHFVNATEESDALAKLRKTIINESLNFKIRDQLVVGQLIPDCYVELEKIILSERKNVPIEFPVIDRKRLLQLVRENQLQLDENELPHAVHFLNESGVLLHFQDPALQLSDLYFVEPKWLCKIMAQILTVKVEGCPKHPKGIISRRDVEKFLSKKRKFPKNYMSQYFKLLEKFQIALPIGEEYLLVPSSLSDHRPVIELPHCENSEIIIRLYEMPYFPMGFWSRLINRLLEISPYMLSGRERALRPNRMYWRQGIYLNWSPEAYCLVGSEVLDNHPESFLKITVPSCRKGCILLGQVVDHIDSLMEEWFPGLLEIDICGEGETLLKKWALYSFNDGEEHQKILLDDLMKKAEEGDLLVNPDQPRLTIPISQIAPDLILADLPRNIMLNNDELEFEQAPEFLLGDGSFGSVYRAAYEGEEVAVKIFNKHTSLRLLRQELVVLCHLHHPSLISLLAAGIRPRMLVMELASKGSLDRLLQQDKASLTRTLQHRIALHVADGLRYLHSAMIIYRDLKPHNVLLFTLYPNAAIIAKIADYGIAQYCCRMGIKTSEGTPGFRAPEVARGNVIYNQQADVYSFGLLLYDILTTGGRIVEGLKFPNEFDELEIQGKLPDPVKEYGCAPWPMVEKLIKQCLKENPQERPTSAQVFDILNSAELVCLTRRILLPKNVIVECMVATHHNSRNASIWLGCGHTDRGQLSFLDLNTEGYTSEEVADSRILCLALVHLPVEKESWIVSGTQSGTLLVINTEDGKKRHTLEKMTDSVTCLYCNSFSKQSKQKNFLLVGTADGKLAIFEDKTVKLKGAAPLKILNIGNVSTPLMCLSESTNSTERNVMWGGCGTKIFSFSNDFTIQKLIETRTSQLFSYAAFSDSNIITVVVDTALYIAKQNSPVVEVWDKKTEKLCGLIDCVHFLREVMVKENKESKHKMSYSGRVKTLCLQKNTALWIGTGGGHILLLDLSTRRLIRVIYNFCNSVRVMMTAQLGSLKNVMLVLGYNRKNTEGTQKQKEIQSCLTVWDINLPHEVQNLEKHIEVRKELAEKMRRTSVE
T1 sequence (Q5S007 whole entry): as above

As for `COc1cc(F)c(NC(=O)Cc2nc3cnc4ccc(C#N)cc4c3n2[C@@H]2CCO[C@H](C)C2)cn1` [Compound 235, N-(4-fluoro-6-methoxy-3-pyridyl){3-[(2R,4R)-2-methyltetrahydro-2H-pyran-4-yl]-12-cyano-3,5,8-triazatricyclo[7.4.0.0^2,6]trideca-1,4,6,8,10,12-hexaen-4-yl}acetamide], the IC50 is 0.458 nM on LRRK2 wild type enzyme and 9.9 nM in assay [1].

In the case of `C[C@@H]1C[C@H](n2c(CC(=O)Nc3ccc(=O)n(C)c3)nc3cnc4ccc(C#N)cc4c32)CCO1` [Compound 281, N-(1-methyl-6-oxo-1,6-dihydro-3-pyridyl){3-[(2R,4R)-2-methyltetrahydro-2H-pyran-4-yl]-12-cyano-3,5,8-triazatricyclo[7.4.0.0^2,6]trideca-1,4,6,8,10,12-hexaen-4-yl}acetamide], the IC50 at LRRK2 wild type enzyme turned out to be 0.394 nM; in assay [1], 336 nM.

As for `Cc1cc(NC(=O)Cc2nc3cnc4ccc(C#N)cc4c3n2[C@@H]2CCO[C@H](C)C2)c(=O)n(C)n1` [Compound 214, N-(2-methyl-6-methyl-3-oxo-2,3-dihydro-4-pyridazinyl){3-[(2R,4R)-2-methyltetrahydro-2H-pyran-4-yl]-12-cyano-3,5,8-triazatricyclo[7.4.0.0^2,6]trideca-1,4,6,8,10,12-hexaen-4-yl}acetamide], the results for the IC50 (on LRRK2 wild type enzyme; in assay [1]) were 0.294 nM and 10.3 nM, respectively.

As for `C[C@@H]1C[C@H](n2c(CC(=O)N[C@H](C)c3ccccn3)nc3cnc4ccc(C#N)cc4c32)CCO1` [Compound 190, 2-{8-cyano-1-[(2R,4R)-2-methyloxan-4-yl]-1H-imidazo[4,5-c]quinolin-2-yl}-N-[(1R)-1-(pyridin-2-yl)ethyl]acetamide], the figures for the IC50 (on LRRK2 wild type enzyme; in assay [1]) were 0.696 nM and 18.7 nM, respectively.

Take `CC(C(=O)NCC1CC1)c1nc2cnc3ccc(C#N)cc3c2n1[C@@H]1CCO[C@H](C)C1` (stereo partly drawn) [Compound 369, N-cyclopropylmethyl2-{3-[(2R,4R)-2-methyltetrahydro-2H-pyran-4-yl]-12-cyano-3,5,8-triazatricyclo[7.4.0.0^2,6]trideca-1(13),2(6),4,7,9,11-hexaen-4-yl}propionamide]: the IC50 was 13.8 nM against LRRK2 wild type enzyme and 801 nM in assay [1].

As to `C[C@@H]1C[C@H](n2c(CC(=O)Nc3ccon3)nc3cnc4ccc(Cl)cc4c32)CCO1` [Compound 352, N-3-isoxazolyl{3-[(2R,4R)-2-methyltetrahydro-2H-pyran-4-yl]-12-chloro-3,5,8-triazatricyclo[7.4.0.0^2,6]trideca-1(9),2(6),4,7,10,12-hexaen-4-yl}acetamide], the values for the IC50 (against LRRK2 wild type enzyme; in assay [1]) were 0.507 nM and 4.06 nM, respectively.

`Cc1cnn(C)c1NC(=O)Cc1nc2cnc3ccc(C#N)cc3c2n1[C@@H]1CCO[C@H](C)C1` [Compound 350, N-(1-methyl-4-methyl-5-pyrazolyl){3-[(2R,4R)-2-methyltetrahydro-2H-pyran-4-yl]-12-cyano-3,5,8-triazatricyclo[7.4.0.0^2,6]trideca-1(9),2(6),4,7,10,12-hexaen-4-yl}acetamide]: the IC50 at LRRK2 wild type enzyme worked out at 0.487 nM; in assay [1], 15.4 nM.

With `C[C@@H]1C[C@H](n2c(C3CC(=O)N(c4cnn(CCO)c4)C3)nc3cnc4ccc(C#N)cc4c32)CCO1` (stereo partly drawn) [Compound 123, 2-{1-[1-(2-hydroxyethyl)-1H-pyrazol-4-yl]-5-oxopyrrolidin-3-yl}-1-[(2R,4R)-2-methyloxan-4-yl]-1H-imidazo[4,5-c]quinoline-8-carbonitrile], the results for the IC50 (at LRRK2 wild type enzyme; in assay [1]) were 1.41 nM and 4050 nM, respectively.

For the molecule `C[C@@H]1C[C@H](n2c(CC(=O)Nc3ccc(=O)n(C)c3)nc3cnc4ccc(Cl)cc4c32)CCO1` [Compound 219, N-(1-methyl-6-oxo-1,6-dihydro-3-pyridyl){3-[(2R,4R)-2-methyltetrahydro-2H-pyran-4-yl]-12-chloro-3,5,8-triazatricyclo[7.4.0.0^2,6]trideca-1,4,6,8,10,12-hexaen-4-yl}acetamide], the IC50 was 0.232 nM against LRRK2 wild type enzyme and 15.8 nM in assay [1].

Consider `C[C@@H]1C[C@H](n2c(CC(=O)NCC3(C)CC3)nc3cnc4ccc(C#N)cc4c32)CCO1` [Compound 265, N-(1-methylcyclopropyl)methyl{3-[(2R,4R)-2-methyltetrahydro-2H-pyran-4-yl]-12-cyano-3,5,8-triazatricyclo[7.4.0.0^2,6]trideca-1,4,6,8,10,12-hexaen-4-yl}acetamide], for which the concentration for half-maximal inhibition (IC50) on LRRK2 wild type enzyme was determined as 0.548 nM; in assay [1] it was 22.4 nM.

`Cc1cncc(NC(=O)Cc2nc3cnc4ccc(C#N)cc4c3n2[C@@H]2CCO[C@H](C)C2)n1` [Compound 314, N-(6-methyl-2-pyrazinyl){3-[(2R,4R)-2-methyltetrahydro-2H-pyran-4-yl]-12-cyano-3,5,8-triazatricyclo[7.4.0.0^2,6]trideca-1(9),2(6),4,7,10,12-hexaen-4-yl}acetamide]: the IC50 against LRRK2 wild type enzyme is 0.542 nM; in assay [1], 2.36 nM.

Regarding `C[C@@H]1C[C@H](n2c([C@@H]3CC(=O)N(c4cnn(C)c4)C3)nc3cnc4ccc(C#N)cc4c32)CCO1` [Compound 48, 2-[(3R)-1-(1-methyl-1H-pyrazol-4-yl)-5-oxopyrrolidin-3-yl]-1-[(2R,4R)-2-methyloxan-4-yl]-1H-imidazo[4,5-c]quinoline-8-carbonitrile], the IC50 on LRRK2 wild type enzyme was 0.921 nM; in assay [1] it was 110 nM.

As to `C[C@@H]1C[C@H](n2c(CC(=O)Nc3ccn(C4CC4)n3)nc3cnc4ccc(C#N)cc4c32)CCO1` [Compound 354, N-(1-cyclopropyl-3-pyrazolyl){3-[(2R,4R)-2-methyltetrahydro-2H-pyran-4-yl]-12-cyano-3,5,8-triazatricyclo[7.4.0.0^2,6]trideca-1(9),2(6),4,7,10,12-hexaen-4-yl}acetamide], the concentration for half-maximal inhibition (IC50) on LRRK2 wild type enzyme worked out at 0.447 nM; in assay [1], 14.8 nM.

Consider `Cc1c(NC(=O)Cc2nc3cnc4ccc(C#N)cc4c3n2[C@@H]2CCO[C@H](C)C2)cnn1C` [Compound 237, N-(1-methyl-5-methyl-4-pyrazolyl){3-[(2R,4R)-2-methyltetrahydro-2H-pyran-4-yl]-12-cyano-3,5,8-triazatricyclo[7.4.0.0^2,6]trideca-1,4,6,8,10,12-hexaen-4-yl}acetamide], for which the results for the IC50 (on LRRK2 wild type enzyme; in assay [1]) were 0.405 nM and 23.4 nM, respectively.

Turning to `Cc1ncncc1NC(=O)Cc1nc2cnc3ccc(C#N)cc3c2n1[C@@H]1CCO[C@H](C)C1` [Compound 216, N-(4-methyl-5-pyrimidinyl){3-[(2R,4R)-2-methyltetrahydro-2H-pyran-4-yl]-12-cyano-3,5,8-triazatricyclo[7.4.0.0^2,6]trideca-1,4,6,8,10,12-hexaen-4-yl}acetamide], the IC50 was found to be 0.422 nM against LRRK2 wild type enzyme and 12.4 nM in assay [1].

`C[C@@H]1C[C@H](n2c(CC(=O)Nc3ccc(F)nc3)nc3cnc4ccc(C#N)cc4c32)CCO1` [Compound 299, N-(6-fluoro-3-pyridyl){3-[(2R,4R)-2-methyltetrahydro-2H-pyran-4-yl]-12-cyano-3,5,8-triazatricyclo[7.4.0.0^2,6]trideca-1,4,6,8,10,12-hexaen-4-yl}acetamide]: the values for the IC50 (against LRRK2 wild type enzyme; in assay [1]) were 0.387 nM and 10.5 nM, respectively.

Turning to `C[C@@H]1C[C@H](n2c(C3CC(=O)N([C@@H]4CCOC4)C3)nc3cnc4ccc(C#N)cc4c32)CCO1` (stereo partly drawn) [Compound 44, 1-[(2R,4R)-2-methyloxan-4-yl]-2-{5-oxo-1-[(3R)-oxolan-3-yl]pyrrolidin-3-yl}-1H-imidazo[4,5-c]quinoline-8-carbonitrile], the IC50 against LRRK2 wild type enzyme was determined as 3.43 nM; in assay [1], 555 nM.

Consider `C[C@@H]1C[C@H](n2c(CC(=O)Nc3ccn(C)n3)nc3cnc4ccc(C#N)cc4c32)CCO1` [Compound 188, 2-{8-cyano-1-[(2R,4R)-2-methyloxan-4-yl]-1H-imidazo[4,5-c]quinolin-2-yl}-N-(1-methyl-1H-pyrazol-3-yl)acetamide], for which the IC50 at LRRK2 wild type enzyme came to 0.321 nM; in assay [1], 7.58 nM.

For the molecule `C[C@@H]1C[C@H](n2c(C3CC(=O)N(CC4CC4)C3)nc3cnc4ccc(Cl)cc4c32)CCO1` (stereo partly drawn) [Compound 3, 4-{8-chloro-1-[(2R,4R)-2-methyloxan-4-yl]-1H-imidazo[4,5-c]quinolin-2-yl}-1-(cyclopropylmethyl)pyrrolidin-2-one], the IC50 at LRRK2 wild type enzyme amounted to 1.21 nM; in assay [1], 88.7 nM.

As to `Cc1cccc(CNC(=O)Cc2nc3cnc4ccc(C#N)cc4c3n2[C@@H]2CCO[C@H](C)C2)n1` [Compound 152, 2-{8-cyano-1-[(2R,4R)-2-methyloxan-4-yl]-1H-imidazo[4,5-c]quinolin-2-yl}-N-[(6-methylpyridin-2-yl)methyl]acetamide], the IC50 on LRRK2 wild type enzyme stood at 0.318 nM; in assay [1] it was 3.4 nM.

As to `C[C@@H]1C[C@H](n2c(CC(=O)Nc3cccn(CC(C)(C)O)c3=O)nc3cnc4ccc(C#N)cc4c32)CCO1` [Compound 240, N-[1-(2-hydroxy-2-methylpropyl)-2-oxo-1,2-dihydro-3-pyridyl]{3-[(2R,4R)-2-methyltetrahydro-2H-pyran-4-yl]-12-cyano-3,5,8-triazatricyclo[7.4.0.0^2,6]trideca-1(9),2(6),4,7,10,12-hexaen-4-yl}acetamide], the IC50 on LRRK2 wild type enzyme was found to be 0.328 nM; in assay [1] it was 26.7 nM.

With `C[C@@H]1C[C@H](n2c(CC(=O)Nc3cccnc3C#N)nc3cnc4ccc(C#N)cc4c32)CCO1` [Compound 272, N-(2-cyano-3-pyridyl){3-[(2R,4R)-2-methyltetrahydro-2H-pyran-4-yl]-12-cyano-3,5,8-triazatricyclo[7.4.0.0^2,6]trideca-1,4,6,8,10,12-hexaen-4-yl}acetamide], the IC50 amounted to 0.549 nM on LRRK2 wild type enzyme and 12.5 nM in assay [1].

One may read the IC50 as the midpoint of a concentration-inhibition curve.
